Test results reported in patent US7611848B2, “Method for selecting allosteric regulators of class III G protein-coupled receptors” (Centre National de la Recherche Scientifique (CNRS), priority 2003, dated 2009).
Each block holds one molecule with its values, some of them ahead of it.

Legend:
[1] = molecular target: heterodimeric receptor GABAB (GB1 and GB2 subunits) (Homo sapiens, UniProt O75899); conditions: literature (Urwyler et al., 2001); cited from earlier work
[2] = test system: deltaGB2s (truncated GABAB2 (GB2) subunit); assay: IP production in HEK293 cells transiently expressing deltaGB2s receptor and chimeric G protein Gqi9; format: cell-based; conditions: deltaGB2s with Gqi9, FIG. 9
Excerpt: FIG. 9: Graph representing the dose-effect of CGP7930 on the deltaGB2s receptor, in HEK293 cells transiently expressing this receptor, and also the chimeric G protein Gqi9 that allows coupling of this receptor to the phospholipase C activation pathway. The results correspond to the ratio of the production of IP to the radioactivity remaining in the membranes.
The protocol described in section A.I. above, concerning the mGlu5 receptor, was applied mutatis mutandis to the mGlu1 and mGlu2 receptors and to the GB2 subunit.
For this, GPCRs-III for which positive allosteric modulators have been described were chosen: the mGlu1 receptor (Ro01-6128) (Knoflach et al., 2001), the mGlu2 receptor (LY487379) (Schaffhauser et al., 2003), and the GABAB2 (GB2) subunit of the GABAB receptor (CGP7930) (Urwyler et al., 2001). The receptors truncated with respect to their extracellular and intracellular portions are named, respectively, delta1s, delta2s and deltaGB2s and were expressed transiently in HEK293 cells.
In order to allow the delta2s and deltaGB2s receptors to activate the phospholipase C, and therefore to increase the production of inositol phosphates, these two receptors were coexpressed with the chimeric G protein Gqi9 as described above (Gomeza et al., 1996; Franek et al., 1999).

[3] = molecular target: mGlu1 receptor (Rattus norvegicus, UniProt P23385); conditions: literature; cited from earlier work
Sequence of mGlu1 receptor (P23385 19-1199): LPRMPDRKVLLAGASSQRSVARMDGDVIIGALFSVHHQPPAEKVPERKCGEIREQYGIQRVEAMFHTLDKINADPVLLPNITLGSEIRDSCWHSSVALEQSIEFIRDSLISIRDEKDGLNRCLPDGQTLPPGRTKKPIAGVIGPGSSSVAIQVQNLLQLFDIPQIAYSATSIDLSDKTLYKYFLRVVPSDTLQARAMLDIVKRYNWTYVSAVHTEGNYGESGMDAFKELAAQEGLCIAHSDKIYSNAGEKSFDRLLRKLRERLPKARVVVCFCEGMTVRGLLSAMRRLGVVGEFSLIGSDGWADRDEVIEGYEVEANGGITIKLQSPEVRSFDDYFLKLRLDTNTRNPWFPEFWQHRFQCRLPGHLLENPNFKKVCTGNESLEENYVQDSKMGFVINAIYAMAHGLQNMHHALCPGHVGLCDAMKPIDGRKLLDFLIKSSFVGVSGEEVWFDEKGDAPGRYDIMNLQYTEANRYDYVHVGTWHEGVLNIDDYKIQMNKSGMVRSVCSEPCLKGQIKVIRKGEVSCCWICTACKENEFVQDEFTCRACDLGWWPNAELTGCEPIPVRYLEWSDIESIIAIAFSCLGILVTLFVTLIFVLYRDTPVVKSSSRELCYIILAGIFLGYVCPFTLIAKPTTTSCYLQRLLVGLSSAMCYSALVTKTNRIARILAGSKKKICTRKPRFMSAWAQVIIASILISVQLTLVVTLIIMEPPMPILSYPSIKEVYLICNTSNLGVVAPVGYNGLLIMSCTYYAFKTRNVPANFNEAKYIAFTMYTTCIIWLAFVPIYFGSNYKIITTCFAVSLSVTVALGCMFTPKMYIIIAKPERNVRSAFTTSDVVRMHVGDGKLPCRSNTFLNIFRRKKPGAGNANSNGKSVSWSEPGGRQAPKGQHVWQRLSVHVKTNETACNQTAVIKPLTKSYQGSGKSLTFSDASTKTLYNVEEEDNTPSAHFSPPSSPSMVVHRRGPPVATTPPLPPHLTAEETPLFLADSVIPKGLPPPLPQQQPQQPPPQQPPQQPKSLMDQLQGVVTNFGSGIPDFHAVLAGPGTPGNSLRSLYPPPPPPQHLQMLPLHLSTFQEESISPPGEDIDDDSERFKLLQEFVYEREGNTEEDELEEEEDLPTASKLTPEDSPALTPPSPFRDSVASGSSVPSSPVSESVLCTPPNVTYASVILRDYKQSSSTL

[4] = molecular target: T1, wild-type mGlu5 receptor (Rattus norvegicus, UniProt P31424); assay: IP production in HEK293 cells transiently expressing wild-type mGlu5 receptor; format: cell-based
T1 construct: expressed in transfected cells; host or cells: HEK293
T1 sequence (P31424 21-1171 isoform P31424-2 limits assumed): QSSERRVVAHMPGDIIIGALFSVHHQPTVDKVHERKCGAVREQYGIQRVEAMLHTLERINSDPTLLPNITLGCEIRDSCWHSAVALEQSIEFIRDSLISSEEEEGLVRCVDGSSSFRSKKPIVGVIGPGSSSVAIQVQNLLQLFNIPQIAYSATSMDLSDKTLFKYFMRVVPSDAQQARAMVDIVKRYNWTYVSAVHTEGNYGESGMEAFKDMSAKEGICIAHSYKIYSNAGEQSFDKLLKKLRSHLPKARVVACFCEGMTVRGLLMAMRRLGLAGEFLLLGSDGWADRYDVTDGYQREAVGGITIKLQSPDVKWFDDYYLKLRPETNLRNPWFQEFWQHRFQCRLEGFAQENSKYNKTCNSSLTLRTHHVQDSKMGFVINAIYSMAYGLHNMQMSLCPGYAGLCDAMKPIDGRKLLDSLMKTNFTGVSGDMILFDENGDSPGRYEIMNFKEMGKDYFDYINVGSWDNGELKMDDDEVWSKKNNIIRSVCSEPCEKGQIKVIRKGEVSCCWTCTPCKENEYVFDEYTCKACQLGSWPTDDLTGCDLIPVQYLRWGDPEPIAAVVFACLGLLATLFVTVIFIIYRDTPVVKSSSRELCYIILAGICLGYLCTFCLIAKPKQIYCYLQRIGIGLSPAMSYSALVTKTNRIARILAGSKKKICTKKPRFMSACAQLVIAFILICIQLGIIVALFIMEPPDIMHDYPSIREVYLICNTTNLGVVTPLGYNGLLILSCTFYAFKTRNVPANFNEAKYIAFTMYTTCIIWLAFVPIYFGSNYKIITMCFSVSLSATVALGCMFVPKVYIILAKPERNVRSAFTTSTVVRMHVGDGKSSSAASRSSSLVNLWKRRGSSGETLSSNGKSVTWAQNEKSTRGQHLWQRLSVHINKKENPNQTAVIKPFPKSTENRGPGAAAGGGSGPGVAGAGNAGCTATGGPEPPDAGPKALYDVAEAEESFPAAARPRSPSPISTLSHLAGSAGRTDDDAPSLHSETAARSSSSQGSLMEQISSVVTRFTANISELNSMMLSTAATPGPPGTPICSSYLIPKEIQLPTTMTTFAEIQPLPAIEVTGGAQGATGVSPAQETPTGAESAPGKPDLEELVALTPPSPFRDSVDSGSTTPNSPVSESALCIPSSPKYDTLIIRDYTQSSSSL
Excerpt: (§1) The results correspond to the ratio of the production of IP to the radioactivity remaining in the membranes.
(§2) The results correspond to the ratio of the production of IP to the radioactivity remaining in the membranes, and are expressed as percentage baseline production of IP.
(§3) In the context of the invention, the measurement of the level of activity of the GPCR-III-A can be carried out by any conventional method known to those skilled in the art that is suitable for measuring the activity of a GPCR-III. Among these methods, mention may be made, by way of example, of measurement of the level of production of inositol phosphates (IPs; see Experimental Section, below; Berridge, 1983; Brandish et al., 2003), measurement of […] (Milligan, 2003), measurement of intracellular calcium signals using fluorescent markers such as Fluo3 or Fluo4, and measurement of cAMP production, the latter two methods being conventional and well known to those skilled in the art.
DFB has recently been described as a positive allosteric regulator of the mGlu5 receptor (Williams et al., 2002). In order to test its effect on the mGlu5ΔS protein, DFB was synthesized by F. Acher (UMR University R. Descartes, rue des Saints Peres, Paris 5).
The data correspond to the mean±standard deviation of the mean of (n) experiments.

[5] = molecular target: mGlu2 receptor (Homo sapiens, UniProt Q14416); conditions: literature; cited from earlier work
Sequence of mGlu2 receptor (Q14416 19-872): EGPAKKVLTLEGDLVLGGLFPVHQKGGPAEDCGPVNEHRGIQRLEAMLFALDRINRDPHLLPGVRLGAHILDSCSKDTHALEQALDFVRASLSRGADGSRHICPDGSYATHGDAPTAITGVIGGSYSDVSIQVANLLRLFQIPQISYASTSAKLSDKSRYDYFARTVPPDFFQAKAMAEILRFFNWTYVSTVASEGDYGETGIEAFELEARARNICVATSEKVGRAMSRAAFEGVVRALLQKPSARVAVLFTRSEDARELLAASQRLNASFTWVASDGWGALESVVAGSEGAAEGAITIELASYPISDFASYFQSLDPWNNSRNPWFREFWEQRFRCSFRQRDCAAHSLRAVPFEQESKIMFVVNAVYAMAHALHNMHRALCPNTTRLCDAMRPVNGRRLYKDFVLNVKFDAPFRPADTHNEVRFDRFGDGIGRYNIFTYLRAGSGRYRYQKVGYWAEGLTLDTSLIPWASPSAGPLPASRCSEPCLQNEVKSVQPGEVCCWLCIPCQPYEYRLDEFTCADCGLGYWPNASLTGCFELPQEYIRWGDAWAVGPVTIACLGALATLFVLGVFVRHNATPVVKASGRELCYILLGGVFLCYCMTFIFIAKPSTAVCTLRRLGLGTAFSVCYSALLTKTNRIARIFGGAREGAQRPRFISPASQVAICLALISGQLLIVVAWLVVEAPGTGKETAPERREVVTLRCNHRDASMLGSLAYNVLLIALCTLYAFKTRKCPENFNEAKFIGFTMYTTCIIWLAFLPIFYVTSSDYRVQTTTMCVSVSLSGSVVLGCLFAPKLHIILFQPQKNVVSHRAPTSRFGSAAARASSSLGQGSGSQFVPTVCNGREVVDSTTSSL

[6] = molecular target: T2, mGlu5ΔS protein (heptahelical domain of the mGlu5 receptor) (Rattus norvegicus, UniProt P31424); assay: IP production in HEK293 cells transiently expressing truncated mGlu5ΔS protein; format: cell-based
T2 construct: between residue P568, located 11 residues before the first transmembrane domain, and residue L864; signal peptide of the mGlu5 receptor (N); expressed in transfected cells; host or cells: HEK293
T2 sequence (P31424 568-864, stated change not applied): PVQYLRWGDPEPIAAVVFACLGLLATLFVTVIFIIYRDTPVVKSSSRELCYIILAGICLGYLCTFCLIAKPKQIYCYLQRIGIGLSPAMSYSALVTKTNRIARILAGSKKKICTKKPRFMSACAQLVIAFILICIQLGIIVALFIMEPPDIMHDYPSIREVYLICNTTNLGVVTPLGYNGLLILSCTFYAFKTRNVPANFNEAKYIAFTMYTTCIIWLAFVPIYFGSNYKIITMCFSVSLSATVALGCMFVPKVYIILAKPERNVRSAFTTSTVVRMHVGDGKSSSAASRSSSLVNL
Excerpt: as §2, §1, §3
The portion of the cDNA of the mGlu5 receptor encoding its heptahelical domain between residue P568, located 11 residues before the first transmembrane domain, and residue L864, located 37 residues after the 7th transmembrane domain, was amplified by PCR (primers SEQ ID No.1 and SEQ ID No.2), including, respectively, the restriction sites of the Mlu-I and Xba-I enzymes at the 5′ and 3′ ends (FIG. 2). The PCR product thus obtained was digested with the Mlu-I and Xba-I enzymes, subcloned into the vector pRK5-NHA (FIG. 2), and digested with the same enzymes. The plasmid pRK5-NHA was obtained from the plasmid pRKG5a-NHA (Ango et al., 1999), by replacing the sequence encoding the mGlu5 receptor, from the end of the HA tag to the XbaI restriction site, with an MluI restriction site.

Molecule: CC(C)(CO)Cc1cc(C(C)(C)C)c(O)c(C(C)(C)C)c1 [CGP7930, 2,6-Di-tert.-butyl-4-4-(3-hydroxy-2,2-dimethyl-propyl)-phenol]
agonist activity on heterodimeric GABAB receptor [1]: weak agonist activity
stimulation of truncated construct (IP production) [2]: strongly stimulates

Molecule: CCOC(=O)NC(=O)C(c1ccccc1)c1ccccc1 [Ro01-6128]
agonist effect when applied alone [3]: no agonist effect
potentiation of the effect of agonists [3]: potentiate the effect of agonists

effect of glutamate on IP production ([4]; 100 μM glutamate (FIG. 3), wild-type mGlu5): stimulated IP production
Molecule: glutamate

Molecule: COc1ccccc1Oc1ccc(N(Cc2cccnc2)S(=O)(=O)CC(F)(F)F)cc1 [LY487379]
agonist effect when applied alone [5]: no agonist effect
potentiation of the effect of agonists [5]: potentiate the effect of agonists

Molecule: Fc1cccc(/C=N/N=C/c2cccc(F)c2)c1 [DFB]
effect on IP production of compound alone (agonist behaviour) ([6]; cells expressing mGlu5ΔS): stimulated IP production
EC50 ([6]; compound alone on mGlu5ΔS, n=3, read-out: EC50 for stimulation of IP production): 8 ± 3 µM
activation of the wild-type mGlu5 receptor by compound alone ([4]; glutamate kept as low as possible by coexpression of EAAC1 and addition of GPT with pyruvate (2 mM)): did not significantly activate
EC50 ([4]; in the presence of a low concentration of agonist, read-out: EC50 for dose-dependent increase of IP production): 1810 ± 1040 nM

Molecule: Cc1cccc(C#Cc2ccccc2)n1 [MPEP, 2-Methyl-6-(phenylethynyl)pyridine]
inhibition of the effect of DFB ([6]; mGlu5ΔS cells treated with 300 μM of DFB (FIG. 6B)): inhibited
inhibition of the effect of DFB ([4]; wild-type receptor, data not shown): inhibited
